Source: US12102690B2, “Preparation method and application of biomimetic nano-protectant for detoxifying dox-induced cardiac and systemic toxicity” (priority 2021, dated 2024)

Assays:
[1] = test system: TC1 cells subcutaneous transplanted tumor model of cervical cancer; test: Tumor inhibition in subcutaneous transplanted tumor model of cervical cancer; type: in vivo; settings: Day24, TC1 tumor-bearing B6 rats
Experimental: (§1) When the tumor volume reached 70-80 mm^3, the NPs+DOX group, the DOX group alone and the NC group were performed respectively; and then changes in size of tumor tissues and the changes in weight of B6 rats were observed and measured from Day0 to Day24. […] However, the volume of tumor tissues in the NC group increases to about 200 times of the initial volume on Day24 (FIG. 20A). […] Meanwhile, due to the rapid growth of tumor tissues in the NC group, the weight of NC group is increased greatly (FIG. 20B).

H9C2 myocardial cells = test: Survival rate of myocardial cells with CCK-8 reagent after IC50 dose of DOX; type: cell-based, rat; settings: DOX group alone, 24 h
Experimental: Different doses of biomimetic nano-protectant DNA&Pro@RBCM-PCM/KALA were added into H9C2 myocardial cells for incubation for 4 h; then, IC50 (50% Inhibitory Concentration) dose of DOX was added; the survival rate of H9C2 myocardial cells was detected with a CCK-8 reagent after 24 h; and a DOX group alone (with a DNA concentration of 0) and a treatment-free NC group (Negative Control) were set as experimental control groups. […] To further describe the protection mechanism of the biomimetic nano-protectant PCM/KALA-RBCM@DNA&Pro, in the invention, a dose of the biomimetic nano-protectant PCM/KALA-RBCM@DNA&Pr (NPs) is determined for protecting the damage of the IC50 dose of DOX to the H9C2 myocardial cells, while three important apoptosis pathway signal molecules (including Bax, Bcl2 and Caspase-3) are selected for Western Blot (WB) test (see FIG. 12).

[2] = Change in weight of tumor-bearing B6 rats; type: in vivo; settings: Day0 to Day24, TC1 tumor-bearing B6 rats
Experimental: as §1

## COc1cccc2c1C(=O)c1c(O)c3c(c(O)c1C2=O)C[C@@](O)(C(=O)CO)C[C@@H]3O[C@H]1C[C@H](N)[C@H](O)[C@H](C)O1 [DOX, doxorubicin]
[1]
  tumor volume at the end of Day24 relative to the initial volume: about 15 times of the initial volume
H9C2 myocardial cells
  survival rate of H9C2 cells: about 50%
[2]
  change in weight of B6 rats: sudden loss of weight
